Test results published in patent publication EP1126023A1, “METHOD FOR INDUCING CELLULAR IMMUNITY AND CELLS WITH INDUCED CELLULAR IMMUNITY” (MITSUBISHI CHEMICAL CORPORATION, priority 1998, dated 2000).

Tested on: CD8-positive HLA-A2402-restrictive CTL clones specific for the ErbB2 p63-71 peptide
Assay: Stimulating activity of treated dendritic cells on proliferation of CTL clone
Assay type: cell-based, human
Conditions: HLA-A2402 dendritic cells treated at protein concentration of 100 µg/ml for 3 hours or peptide-pulsed; compared to the non-treated dendritic cells; Fig. 3
Experimental: The dendritic cells, prepared from healthy human peripheral blood monocytes having HLA-A2402 as described above, were cultured with the CHP-ErbB2 suspension, the ErbB2 protein alone, the CHP-CAB suspension, or the CAB protein alone each at a protein concentration of 100 µ g/ml for 3 hours. The cells were washed and then further cultured for 15 hours.
By using these dendritic cells and the ErbB2 p63-71 peptide-pulsed dendritic cells derived from the same individual as stimulating cells, their abilities of stimulation were examined on the aforementioned CD8-positive HLA-A2402-restrictive CTL clones specific for the ErbB2 p63-71 peptide.

With “p63-71 peptide: peptide having the 63-71 amino acid sequence of HER2, positive control (TYLPTNASL)” the “stimulation and proliferation of the CTL clone” value was “significantly stimulate the CTL clone and induce proliferation”.
